{"source": "paper PMC4877593", "about": "“Design and Synthesis of Potent in Vitro and in Vivo Anticancer Agents Based on 1-(3′,4′,5′-Trimethoxyphenyl)-2-Aryl-1H-Imidazole” (Scientific Reports, 2016)", "key": {"HeLa [1]": {"system": "HeLa", "test": "In vitro antiproliferative activity (MTT), HeLa", "assay_type": "cell-based", "details": "Homo sapiens, tumor cell proliferation, 72 h, mean ± SE", "experimental": "(§1) Human T-cell leukemia (CCRF-CEM and Jurkat) and human B-cell leukemia (SEM) cells were grown in RPMI-1640 medium (Gibco, Milano, Italy). Breast adenocarcinoma (MCF7), human cervix carcinoma (HeLa), and human colon adenocarcinoma (HT-29) cells were grown in DMEM medium (Gibco, Milano, Italy), all supplemented with 115 units/mL penicillin G (Gibco, Milano, Italy), 115 μg/mL streptomycin (Invitrogen, Milano, Italy), and 10% fetal bovine serum (Invitrogen, Milano, Italy). Stock solutions (10 mM) of the different compounds were obtained by dissolving them in dimethyl sulfoxide (DMSO). Individual wells of a 96-well tissue culture microtiter plate were inoculated with 100 μL of complete medium containing 8 × 10^3 cells. The plates were incubated at 37 °C in a humidified 5% CO2 incubator for 18 h prior to the experiments. After medium removal, 100 μL of fresh medium containing the test compound at different concentrations was added to each well in triplicate and incubated at 37 °C for 72 h. The percentage of DMSO in the medium never exceeded 0.25%. This was also the maximum DMSO concentration in all cell-based assays described below. […] Different concentrations of the test compounds were added, and viability was determined 72 h later by the MTT test. For cytotoxicity evaluations in resting PBL cultures, non-adherent cells were resuspended (5 × 10^5 cells/mL) and treated for 72 h with the test compounds, as described above."}, "HT-29": {"system": "HT-29", "test": "In vitro antiproliferative activity (MTT), HT-29", "assay_type": "cell-based", "details": "Homo sapiens, tumor cell proliferation, 72 h, mean ± SE", "experimental": "as §1"}, "[2]": {"system": "panel of seven human tumor cell lines", "test": "Antiproliferative activity across the panel of seven human tumor cell lines", "assay_type": "cell-based", "experimental": "as §1"}, "Jurkat cells": {"system": "Jurkat cells", "test": "Cell cycle distribution by flow cytometry (PI), Jurkat", "assay_type": "cell-based, human", "details": "24 h treatment", "experimental": "The effects of a 24 h treatment with different concentrations of 4o on cell cycle progression in Jurkat, and HeLa cells were determined by flow cytometry, following propidium iodide (PI) staining of the cells (Fig. 4, Panels A,B). […] In the HeLa cells, the G2/M block was accompanied by a significant reduction of both G1 and S phase cells. In order to determine whether 4o was able to block cells at the mitotic phase (M), cells were stained with an immunofluorescent antibody to p-histone H3, a well known mitotic marker, as well as PI, and analyzed by flow cytometry. As shown in Fig. 4 (Panel C), in which representative histograms are presented, Hela cells arrested in M phase by treatment with 4o are readily distinguished from G2 cells by the higher level of p-histone H3. In particular, treatment with 4o induced an increase in the percentage of mitotic cells from the 2% observed in untreated cells to about 30% with both 50 and 100 nM 4o at 24 h (Fig. 4, Panel D).\n5 × 10^5 HeLa or Jurkat cells were treated with different concentrations of the test compounds for 24 h. After the incubation period, the cells were collected, centrifuged, and fixed with ice-cold ethanol (70%). […] Samples were analyzed on a Cytomic FC500 flow cytometer (Beckman Coulter). DNA histograms were analyzed using MultiCycle for Windows (Phoenix Flow Systems)."}, "HeLa [3]": {"system": "HeLa", "test": "ROS production (H2-DCFDA), HeLa", "assay_type": "cell-based, human", "details": "in comparison with control cells", "experimental": "Figure 7 Assessment of mitochondrial membrane potential (Δψmt) and production of ROS after treatment of HeLa (Panels A,B) or Jurkat (Panels C,D) cells with compound 4o. Cells were treated with the indicated concentration of compound for 24 or 48 h and then stained with the fluorescent probe JC-1 for analysis of mitochondrial potential or H2-DCFDA for the evaluation of ROS levels. Cells were then analyzed by flow cytometry as described in the experimental section.\nIt is also well known that dissipation of mitochondrial potential is associated with mitochondrial production of ROS[38]. Superoxide anion is produced by mitochondria due to a shift from the normal 4-electron reduction of O2 to a 1-electron reduction when cytochrome c is released from mitochondria upon apoptosis. Therefore, we investigated whether ROS production increased after treatment with compound 4o. We utilized the dye 2,7-dichlorodihydrofluorescein diacetate (H2-DCFDA), which is oxidized to the fluorescent compound dichlorofluorescein (DCF) upon ROS induction."}}, "note": "Where two headings read alike, the source gives them in different places."}
{"smiles": "CCOc1ccc(-c2nccn2-c2cc(OC)c(OC)c(OC)c2)cc1Cl", "note": "[Compound 4o, 2-(3′-Chloro-4′-ethoxyphenyl)-1-(3′,4′,5′-trimethoxyphenyl)-1H-imidazole]", "values": [{"measurement": "IC50", "setting": "HeLa [1]", "value": "3.8 ± 0.7", "unit": "nM"}, {"measurement": "IC50", "setting": "HT-29", "value": "0.4 ± 0.06", "unit": "nM"}, {"measurement": "IC50", "setting": "[2]; average over the seven cell lines, read-out: average IC50 values", "value": 1.3, "unit": "nM"}, {"measurement": "IC50", "setting": "[2]; range over seven cancer cell lines, read-out: IC50 values in the seven cell lines (range)", "value": "0.4 to 3.8", "unit": "nM"}, {"measurement": "lowest concentration with a rise in G2/M cells", "setting": "Jurkat cells", "value": 25, "unit": "nM"}, {"measurement": "ROS production (H2-DCFDA)", "setting": "HeLa [3]", "value": "induced the production of large amounts of ROS"}]}
